Entries after “also recorded” stand apart in the source; their conditions may differ.
Experiments:
[1] = molecular target: activated VLA4 on H929 (Homo sapiens, UniProt P05556+P13612); conditions: H929, flow cytometry
Protocol: (§1) The single cells were suspended in phosphate-buffered saline (PBS) with 0.1% bovine serum albumin as buffer. The human and mouse FC receptors were blocked by human BD Fc block and mouse BD Fc block, respectively. The cell suspension was incubated with fluorochrome-conjugated monoclonal antibodies in dark, at room temperature, for 30 min. Cells were washed twice with buffer afterward, and then proceeded analysis on a Beckman Coulter Gallios flow cytometer. The dead cells were excluded by using 7-amino-actinonycin D (7-AAD). The data were analyzed on FlowJo software. The appropriate isotype antibodies were used as controls.

[2] = molecular target: activated VLA4 on 5TGM1 (Mus musculus, UniProt P09055+Q00651); conditions: 5TGM1, flow cytometry
Protocol: as §1

[3] = molecular target: activated VLA4 on U266 (Homo sapiens, UniProt P05556+P13612); conditions: U266, flow cytometry
Protocol: as §1

[4] = molecular target: activated VLA4 on OPM2 (Homo sapiens, UniProt P05556+P13612); conditions: OPM2, flow cytometry
Protocol: as §1

[5] = molecular target: activated VLA4 on RPMI-8226 (Homo sapiens, UniProt P05556+P13612); conditions: RPMI-8226, flow cytometry
Protocol: as §1

[6] = molecular target: activated VLA4 on MM1.S (Homo sapiens, UniProt P05556+P13612); conditions: flow cytometry
Protocol: as §1

[7] = test system: 5TGM1-GFP tumors in C57Bl/KaLwRij mice; assay: In vivo and ex vivo NIR fluorescence imaging in the 5TGM1/KaLwRij i.v. MM model; parameters: species or system mouse
Protocol: All animal studies were conducted according to protocols approved by the Washington University Animal Studies Committee. Mice were anesthetized for all treatments and imaging with 2% v/v isoflurane/100% O2. Female 1–3 month-old C57Bl/6 KaLwRij mice were injected intravenously (i.v.) with 10^6 5TGM1-GFP cells in 100 µL 1 × PBS via the lateral tail vein. Imaging studies were performed 3–4 weeks after tumor implantation. Prior to imaging, hair was removed by gentle clipping and depilatory cream to improve light transmission. Supplemental Fig. S1. […] The images were background subtracted and gated by fluorescence lifetime to minimize autofluorescence and diet-related non-specific fluorescence[65],[66].
Supplementary Fig. 4. Mice were anesthetized for all imaging with 2% v/v isoflurane/100% O2. Female (n = 2)1–3 month old C57Bl/6 KaLwRij mice were injected with 1 × 10^6 5TGM1-GFP WT in 100 µL PBS via the lateral tail-vein. In vivo 3D fluorescence imaging in Supplemental Fig. 3A was performed on IVIS Spectrum CT (PerkinElmer, Waltham, MA) with auto-exposure settings in the GFP wavelength (Ex./Em. 480 nm/520 nm) filter pair.
Supplementary Fig. 5. Mice were anesthetized for all imaging with 2% v/v isoflurane/100% O2. Female 1–3 month old C57Bl/6 KaLwRij mice were injected with 1 × 10^6 5TGM1-GFP WT (n = 11) or KO (n = 12) cells in 100 µL PBS via the lateral tail-vein.
2D analysis and 3D in vivo and ex vivo reconstructions were performed using the Living Image 4.7.1 analysis software. Background fluorescence was subtracted automatically via the “Adaptive Background Subtraction” module within the Living Image 4.7.1 program. Analysis of 2D ex vivo fluorescent images was performed by measuring Total Radiant Efficiency (TRE) (photons/sec/cm^2/sr)/(μW/cm^2) from ROIs drawn around bone and muscle tissue in the GFP and Cy5 images. Tissue to muscle ratio was calculated by dividing TREs of tissue by TREs of muscle tissue of each respective mouse.
(§2) [picture] Supplementary Figure 4. […] In vivo 3D fluorescence imaging was performed on IVIS Spectrum CT (PerkinElmer, Waltham, MA) with auto-exposure settings in the GFP wavelength (Ex./Em. 480nm/520nm) filter pair. […] GFP^+ cells were co-stained with PE-conjugated anti-mouse CD49d and eFluor450-conjugated anti-mouse CD29 antibodies (middle; Thermo Fisher Scientific) to identify VLA4^+ cells.

[8] = test system: monocytes; assay: Binding studies with MM patient BM samples, monocytes; parameters: species or system human
Protocol: (§3) Purified cells were > 97% for CD38 + CD138 + plasma cells.
(§4) The data were analyzed on FlowJo software. The appropriate isotype antibodies were used as controls.

[9] = test system: B-lymphocytes; assay: Binding studies with MM patient BM samples, B-lymphocytes; parameters: species or system human
Protocol: as §3, §4

[10] = molecular target: activated VLA4 on the surface of the 5TGM1-GFP murine myeloma cells (Mus musculus, UniProt P09055+Q00651); assay: Confocal microscopy of cell surface binding and internalization of Cy5-labelled probes; conditions: WT 5TGM1-GFP cells
Protocol: Blue, green and red colors represent nuclear stain, GFP, and Cy5 signal, respectively in all images (60x; scale bar: 20 µm). […] BIO5192 (100 nM) was used to evaluate non-specific binding.
WT 5TGM1-GFP cells were plated on 35 mm glass bottom MatTek dishes pre-coated with poly-D-lysine (glass no. 1.5; MatTek Corporation, MA) at 10^5 cells/cm^2 and allowed to attach for 1 h at 37 °C. Cells were incubated with the Cy5-labelled probes (1 µM) at 4 °C for 15 min, and at 37 °C for 2.5 h to assess cell surface binding specificity and cellular internalization, respectively. Hoechst 34,580 (10 µg/L, Invitrogen, CA) was added for the last 15 min of incubation to counterstain cell nuclei. Fluorescence confocal microscopy was performed on a Nikon A1Rsi confocal microscope (Nikon Corporation, Tokyo, Japan) with 60X and 100X oil immersion objectives using excitation-emission settings at 405 nm-450/40 nm (Hoechst 34,580), 488 nm-530/20 nm (GFP), and 640–660/20 nm (Cy5).

[11] = test system: T-lymphocytes; assay: Binding studies with MM patient BM samples, T-lymphocytes; parameters: species or system human
Protocol: as §3, §4

[12] = test system: VLA4 KO 5TGM1-GFP cells; assay: Flow cytometry binding to Itga4 KO 5TGM1-GFP cells; parameters: species or system murine; conditions: for binding to KO cells (flow cytometry gate): 1.5 × 10^5 Itga4 KO 5TGM1-GFP cells, no BIO5192; for binding to KO cells after pre-incubation with BIO5192: Itga4 KO 5TGM1-GFP cells, pre-incubation with an established therapeutic dose of BIO5192
Protocol: as §1

[13] = molecular target: T1, VLA4 on WT 5TGM1-GFP cells (Mus musculus, UniProt P09055+Q00651); assay: Flow cytometry binding to WT 5TGM1-GFP cells; parameters: species or system murine; conditions: for binding to WT cells (flow cytometry gate): 1.5 × 10^5 WT 5TGM1-GFP cells, no BIO5192; for binding to WT cells after pre-incubation with BIO5192: WT 5TGM1-GFP cells, pre-incubation with an established therapeutic dose of BIO5192
T1 construct: endogenous in cells; host or cells: WT 5TGM1-GFP murine myeloma cells
Protocol: as §1

[14] = molecular target: activated VLA4 on CD138+CD38+ MM PCs (Homo sapiens, UniProt P05556+P13612); conditions: nineteen de-identified BM samples from myeloma patients (13/19); HBSS with Ca2+, Mg2+, 0.1% BSA
Protocol: […] The human and mouse FC receptors were blocked by human BD Fc block and mouse BD Fc block, respectively. The cell suspension was incubated with fluorochrome-conjugated monoclonal antibodies in dark, at room temperature, for 30 min. Cells were washed twice with buffer afterward, and then proceeded analysis on a Beckman Coulter Gallios flow cytometer. The dead cells were excluded by using 7-amino-actinonycin D (7-AAD). The data were analyzed on FlowJo software. The appropriate isotype antibodies were used as controls.

[15] = test system: VLA4 expressing cells in BM and spleen of 5TGM1-GFP tumor mice; assay: FACS of ex vivo tissue samples after LLP2A-Cy5 injection; type: in vivo, mouse; conditions: after i.v. LLP2A-Cy5
Protocol: as §4, §2

[16] = ex vivo biodistribution 18 h after i.v. 100 µL of 25 µM LLP2A-Cy5, 5TGM1-GFP WT tumor mice, 3 weeks post inoculation, mean ± SD

T1 sequence (Q00651 34-1039 limits assumed): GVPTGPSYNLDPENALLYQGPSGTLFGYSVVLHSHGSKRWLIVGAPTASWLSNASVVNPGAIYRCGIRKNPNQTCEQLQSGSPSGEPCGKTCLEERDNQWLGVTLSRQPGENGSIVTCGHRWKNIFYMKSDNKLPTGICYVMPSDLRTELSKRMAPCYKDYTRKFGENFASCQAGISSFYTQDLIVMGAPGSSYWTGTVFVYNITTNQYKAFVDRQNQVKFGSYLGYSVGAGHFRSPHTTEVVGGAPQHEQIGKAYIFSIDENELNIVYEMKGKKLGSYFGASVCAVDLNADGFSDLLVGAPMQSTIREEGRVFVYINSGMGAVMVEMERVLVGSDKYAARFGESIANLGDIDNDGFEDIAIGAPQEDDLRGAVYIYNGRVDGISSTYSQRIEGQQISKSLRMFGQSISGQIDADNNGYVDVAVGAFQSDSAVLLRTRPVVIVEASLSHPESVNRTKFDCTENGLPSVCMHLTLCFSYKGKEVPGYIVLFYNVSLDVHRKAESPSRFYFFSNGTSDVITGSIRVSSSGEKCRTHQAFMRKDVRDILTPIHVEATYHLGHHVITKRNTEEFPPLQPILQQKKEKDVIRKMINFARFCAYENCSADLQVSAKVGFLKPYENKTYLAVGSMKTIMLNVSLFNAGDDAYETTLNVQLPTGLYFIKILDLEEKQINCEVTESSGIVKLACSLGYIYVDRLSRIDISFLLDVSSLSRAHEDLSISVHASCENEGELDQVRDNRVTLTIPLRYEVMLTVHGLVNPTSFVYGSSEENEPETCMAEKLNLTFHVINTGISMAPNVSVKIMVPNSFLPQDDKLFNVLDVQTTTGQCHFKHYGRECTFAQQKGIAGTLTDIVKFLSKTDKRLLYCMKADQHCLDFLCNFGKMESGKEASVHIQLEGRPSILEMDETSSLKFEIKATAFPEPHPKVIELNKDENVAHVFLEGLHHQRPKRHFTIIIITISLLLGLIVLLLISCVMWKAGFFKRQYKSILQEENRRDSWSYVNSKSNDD
T1 sequence (P09055 21-798): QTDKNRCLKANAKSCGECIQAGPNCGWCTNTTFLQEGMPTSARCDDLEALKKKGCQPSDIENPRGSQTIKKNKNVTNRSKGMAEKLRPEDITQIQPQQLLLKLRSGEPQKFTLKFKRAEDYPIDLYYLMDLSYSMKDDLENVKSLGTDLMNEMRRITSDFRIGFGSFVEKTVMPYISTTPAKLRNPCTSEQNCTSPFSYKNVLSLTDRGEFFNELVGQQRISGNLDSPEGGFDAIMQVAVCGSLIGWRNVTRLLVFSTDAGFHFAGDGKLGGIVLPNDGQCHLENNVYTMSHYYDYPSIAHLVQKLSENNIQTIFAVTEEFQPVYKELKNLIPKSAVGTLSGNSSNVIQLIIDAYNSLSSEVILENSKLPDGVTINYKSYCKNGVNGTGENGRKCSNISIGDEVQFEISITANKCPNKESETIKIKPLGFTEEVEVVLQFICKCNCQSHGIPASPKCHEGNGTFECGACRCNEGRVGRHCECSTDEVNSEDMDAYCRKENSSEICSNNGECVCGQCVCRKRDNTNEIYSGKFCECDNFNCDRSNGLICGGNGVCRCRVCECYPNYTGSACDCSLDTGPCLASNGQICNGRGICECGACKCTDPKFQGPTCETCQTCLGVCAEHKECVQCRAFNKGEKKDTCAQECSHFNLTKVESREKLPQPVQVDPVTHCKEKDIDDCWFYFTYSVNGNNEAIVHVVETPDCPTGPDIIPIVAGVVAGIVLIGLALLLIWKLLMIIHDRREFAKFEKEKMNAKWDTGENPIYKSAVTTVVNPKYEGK
Sequence of activated VLA4 on the surface of the 5TGM1-GFP murine myeloma cells (Q00651 34-1039 limits assumed): as the sequence (Q00651 34-1039 limits assumed) above
Sequence of activated VLA4 on the surface of the 5TGM1-GFP murine myeloma cells (P09055 21-798): as the sequence (P09055 21-798) above
Sequence of activated VLA4 on RPMI-8226 (P13612 34-1032): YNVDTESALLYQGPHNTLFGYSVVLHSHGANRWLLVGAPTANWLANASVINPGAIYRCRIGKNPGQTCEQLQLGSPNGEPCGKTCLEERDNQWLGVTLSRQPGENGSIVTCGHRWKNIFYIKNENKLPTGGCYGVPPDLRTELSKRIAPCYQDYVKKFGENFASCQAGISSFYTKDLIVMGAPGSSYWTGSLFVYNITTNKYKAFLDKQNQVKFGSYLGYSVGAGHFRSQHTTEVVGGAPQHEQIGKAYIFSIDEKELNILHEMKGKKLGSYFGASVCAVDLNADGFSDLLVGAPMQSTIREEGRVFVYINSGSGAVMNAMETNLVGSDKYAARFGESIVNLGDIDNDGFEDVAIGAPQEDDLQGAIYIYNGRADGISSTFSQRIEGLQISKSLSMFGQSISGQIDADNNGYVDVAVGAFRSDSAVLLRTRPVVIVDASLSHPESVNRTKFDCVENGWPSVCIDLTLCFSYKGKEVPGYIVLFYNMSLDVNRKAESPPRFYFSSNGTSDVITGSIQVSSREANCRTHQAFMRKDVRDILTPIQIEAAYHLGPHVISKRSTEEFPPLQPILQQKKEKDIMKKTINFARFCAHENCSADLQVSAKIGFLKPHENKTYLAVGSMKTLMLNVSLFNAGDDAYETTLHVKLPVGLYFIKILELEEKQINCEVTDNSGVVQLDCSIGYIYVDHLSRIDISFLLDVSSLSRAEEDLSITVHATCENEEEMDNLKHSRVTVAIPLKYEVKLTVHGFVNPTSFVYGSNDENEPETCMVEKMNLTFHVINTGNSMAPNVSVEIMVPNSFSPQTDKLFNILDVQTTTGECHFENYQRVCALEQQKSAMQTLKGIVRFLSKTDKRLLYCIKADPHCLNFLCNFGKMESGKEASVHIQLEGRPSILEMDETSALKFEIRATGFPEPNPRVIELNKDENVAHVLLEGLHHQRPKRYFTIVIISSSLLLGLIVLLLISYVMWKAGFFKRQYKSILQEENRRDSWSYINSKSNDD
Sequence of activated VLA4 on RPMI-8226 (P05556 21-798): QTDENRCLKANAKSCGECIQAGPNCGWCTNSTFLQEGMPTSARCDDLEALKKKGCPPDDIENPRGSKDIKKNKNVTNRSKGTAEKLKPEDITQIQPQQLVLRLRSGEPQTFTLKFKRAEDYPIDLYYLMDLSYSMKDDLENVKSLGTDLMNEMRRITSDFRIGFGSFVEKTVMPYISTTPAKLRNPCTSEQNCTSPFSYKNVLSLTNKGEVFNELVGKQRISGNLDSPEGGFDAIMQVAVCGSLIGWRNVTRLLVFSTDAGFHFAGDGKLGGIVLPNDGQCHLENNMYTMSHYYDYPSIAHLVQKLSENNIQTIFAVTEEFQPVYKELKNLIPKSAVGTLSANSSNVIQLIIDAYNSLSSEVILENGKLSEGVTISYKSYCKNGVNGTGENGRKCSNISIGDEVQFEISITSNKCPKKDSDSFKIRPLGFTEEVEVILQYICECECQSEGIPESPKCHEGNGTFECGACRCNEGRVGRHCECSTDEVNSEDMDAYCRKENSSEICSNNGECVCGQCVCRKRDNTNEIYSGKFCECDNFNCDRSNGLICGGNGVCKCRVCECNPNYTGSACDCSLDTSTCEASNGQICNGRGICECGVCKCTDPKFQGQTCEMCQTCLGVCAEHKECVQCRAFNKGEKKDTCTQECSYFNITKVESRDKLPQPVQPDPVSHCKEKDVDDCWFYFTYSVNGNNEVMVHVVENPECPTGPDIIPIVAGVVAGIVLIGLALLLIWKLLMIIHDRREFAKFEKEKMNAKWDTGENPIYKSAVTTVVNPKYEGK
Sequence of activated VLA4 on H929 (P13612 34-1032): as the sequence (P13612 34-1032) above
Sequence of activated VLA4 on H929 (P05556 21-798): as the sequence (P05556 21-798) above
Sequence of activated VLA4 on MM1.S (P13612 34-1032): as the sequence (P13612 34-1032) above
Sequence of activated VLA4 on MM1.S (P05556 21-798): as the sequence (P05556 21-798) above
Sequence of activated VLA4 on U266 (P13612 34-1032): as the sequence (P13612 34-1032) above
Sequence of activated VLA4 on U266 (P05556 21-798): as the sequence (P05556 21-798) above
Sequence of activated VLA4 on OPM2 (P13612 34-1032): as the sequence (P13612 34-1032) above
Sequence of activated VLA4 on OPM2 (P05556 21-798): as the sequence (P05556 21-798) above
Sequence of activated VLA4 on 5TGM1 (Q00651 34-1039 limits assumed): as the sequence (Q00651 34-1039 limits assumed) above
Sequence of activated VLA4 on 5TGM1 (P09055 21-798): as the sequence (P09055 21-798) above
Sequence of activated VLA4 on CD138+CD38+ MM PCs (P13612 34-1032): as the sequence (P13612 34-1032) above
Sequence of activated VLA4 on CD138+CD38+ MM PCs (P05556 21-798): as the sequence (P05556 21-798) above

## Cc1ccccc1NC(=O)Nc1ccc(CC(=O)N[C@@H](CCCCNC(=O)/C=C/c2cccnc2)C(=O)N[C@@H](CCCC(=O)O)C(=O)NC2(C(N)=O)CCCCC2)cc1 [LLP2A-Cy5]
[1]
  % LLP2A-Cy5+: 63.3%
  LLP2A-Cy5+ median fluorescence intensity (MFI): 3.4
[2]
  % LLP2A-Cy5+: 100%
  LLP2A-Cy5+ median fluorescence intensity (MFI): 23.4
[3]
  % LLP2A-Cy5+: 100%
  LLP2A-Cy5+ median fluorescence intensity (MFI): 16.1
[4]
  % LLP2A-Cy5+: 80.1%
  LLP2A-Cy5+ median fluorescence intensity (MFI): 4.6
[5]
  % LLP2A-Cy5+: 59.5%
  LLP2A-Cy5+ median fluorescence intensity (MFI): 3.2
[6]
  % LLP2A-Cy5+: 22.4%
  LLP2A-Cy5+ median fluorescence intensity (MFI): 2.1
[7]; KaLwRij mice with Itga4 KO versus WT 5TGM1-GFP tumors, ex vivo fluorescence imaging 18 h after LLP2A-Cy5
  uptake in KO tumor foci compared with WT: significantly reduced uptake
[7]; [16]
  femur-muscle fluorescence ratio: 7.0 ± 2.5
  spleen-muscle fluorescence ratio: 2.6 ± 0.7
[7]; noninvasive fluorescence imaging before, 4 and 18 h after i.v. 100 µL of 25 µM LLP2A-Cy5
  time post-injection at which tumor contrast peaked: ~ 18 h
[8]
  percentage of LLP2A-Cy5+ cells: 58.2%
  relative median fluorescence (RMFI): 3.0
[9]
  percentage of LLP2A-Cy5+ cells: 23.3%
  relative median fluorescence (RMFI): 1.7
[10]; 1 µM, 37 °C, 2.5 h, confocal 3D z-stack
  cellular localization after extended incubation: dominant cell membrane binding; also recorded: strong cell surface binding with minimal internalization
[10]; LLP2A-Cy5 1 µM co-incubated with 100-fold excess LLP2A-PEG4 (100 µM), 15 min, 4 °C, confocal microscopy
  fold reduction of cell surface binding on blocking with excess unlabeled peptide: 3.07 ± 0.3 fold
[11]
  percentage of LLP2A-Cy5+ cells: 36.3%
  relative median fluorescence (RMFI): 2.2
[12]
  binding to KO cells (flow cytometry gate): 0.6%
  binding to KO cells after pre-incubation with BIO5192: 0.52%
[13]
  binding to WT cells (flow cytometry gate): 100%
  binding to WT cells after pre-incubation with BIO5192: 0.95%
[14]
  share of patient samples in which LLP2A-Cy5 stained over 20% of CD138+CD38+ MM PCs: 68%
[15]; ex vivo BM, GFP+ tumor cells (97.5% VLA4+)
  % LLP2A-Cy5+ cells in the BM: 84.7%
[15]; hematopoietic BM niche (63.6% VLA4+)
  % LLP2A-Cy5+ cells in the hematopoietic BM niche: 53.2%

B1: sVCAM-1: soluble vascular cell adhesion molecule-1, natural ligand of VLA4 (protein, UniProt P19320 25-698, looked up)
extracellular domain: FKIETTPESRYLAQIGDSVSLTCSTTGCESPFFSWRTQIDSPLNGKVTNEGTTSTLTMNPVSFGNEHSYLCTATCESRKLEKGIQVEIYSFPKDPEIHLSGPLEAGKPITVKCSVADVYPFDRLEIDLLKGDHLMKSQEFLEDADRKSLETKSLEVTFTPVIEDIGKVLVCRAKLHIDEMDSVPTVRQAVKELQVYISPKNTVISVNPSTKLQEGGSVTMTCSSEGLPAPEIFWSKKLDNGNLQHLSGNATLTLIAMRMEDSGIYVCEGVNLIGKNRKEVELIVQEKPFTVEISPGPRIAAQIGDSVMLTCSVMGCESPSFSWRTQIDSPLSGKVRSEGTNSTLTLSPVSFENEHSYLCTVTCGHKKLEKGIQVELYSFPRDPEIEMSGGLVNGSSVTVSCKVPSVYPLDRLEIELLKGETILENIEFLEDTDMKSLENKSLEMTFIPTIEDTGKALVCQAKLHIDDMEFEPKQRQSTQTLYVNVAPRDTTVLVSPSSILEEGSSVNMTCLSQGFPAPKILWSRQLPNGELQPLSENATLTLISTKMEDSGVYLCEGINQAGRSRKEVELIIQVTPKDIKLTAFPSESVKEGDTVIISCTCGNVPETWIILKKKAETGDTVLKSIDGAYTIRKAQLKDAGVYECESKNKVGSQLRSLTLDVQGRENNKDYFSPE
modifications: extracellular domain
notes: soluble vascular cell adhesion molecule-1, natural ligand of VLA4
[12]
  binding to KO cells (flow cytometry gate): 1.65 ± 0.07%
  binding to KO cells after pre-incubation with BIO5192: 2.51%
[13]
  binding to WT cells (flow cytometry gate): 97.7%
  binding to WT cells after pre-incubation with BIO5192: 3.33%

Reference: paper PMC8741970, “Ablation of VLA4 in multiple myeloma cells redirects tumor spread and prolongs survival” (Scientific Reports, 2022)
